{"source": "paper PMC8464984", "about": "“AimR Adopts Preexisting Dimer Conformations for Specific Target Recognition in Lysis-Lysogeny Decisions of Bacillus Phage phi3T” (Biomolecules, 2021)", "key": {"[1]": {"biological_target": "T1, phAimR dimer (N103C-labelled) (Bacillus phage phi3T, UniProt P0DOE3, C136S/C223S/C267S/C6S/C74S/C99S/N103C)", "T1 construct": "6xHis (N, cleaved yes); made in house; host or cells: Escherichia coli BL21 (DE3)", "T1 sequence (P0DOE3 whole entry C6S/C74S/C99S/N103C/C136S/C223S/C267S)": "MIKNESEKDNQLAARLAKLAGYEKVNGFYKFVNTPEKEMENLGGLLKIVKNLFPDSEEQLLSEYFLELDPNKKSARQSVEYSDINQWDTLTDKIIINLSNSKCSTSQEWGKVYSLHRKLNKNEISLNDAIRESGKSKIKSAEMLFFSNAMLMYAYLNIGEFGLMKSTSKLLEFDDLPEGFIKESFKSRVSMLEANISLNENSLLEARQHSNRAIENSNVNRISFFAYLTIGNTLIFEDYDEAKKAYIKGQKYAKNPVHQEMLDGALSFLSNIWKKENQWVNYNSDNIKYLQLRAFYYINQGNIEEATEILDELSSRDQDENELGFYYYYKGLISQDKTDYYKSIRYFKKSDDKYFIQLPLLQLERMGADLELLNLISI", "assay": "smFRET titration of phAimR dimer labelled at N103C (Alexa488/Cy5)", "assay_type": "binding", "details": "titration of SAIRGA (20-500 nM) or target DNA (500-8000 nM), GMPRGA at 500 nM", "method": "(§1) The cysteine substitutions of phAimR (phAimR^C6S/C74S/C99S/C136S/C223S/C267S/N103C or phAimR^C6S/C74S/ C99S/C136S/C223S/C267S/D174C) were generated with a standard PCR-based strategy. Proteins were prepared in the same way as the wild-type phAimR. Alexa Fluor 488 C5 maleimide (Alexa488, A10254, Thermo Fisher, Shanghai, China) and Cy5 maleimide (Cy5, PA15131, GE Healthcare, Shanghai, China) were used as fluorescence donor and acceptor, respectively. A desalting column (HiPrep 26/10, GE Healthcare, Shanghai, China) was used to exchange the protein buffer into the conjugation buffer containing 20 mM phosphate (pH 7.4) and 100 mM NaCl. The protein fraction was collected in premixed Alexa488 and Cy5 dyes. The conjugation of phAimR was performed with Alexa488 and Cy5 at a molar ratio of 1:4:4. Conjugation reaction was performed for 3 h at room temperature in the dark, and the mixture was then purified using a Source-Q column (GE Healthcare, Shanghai, China). The fractions of double-labeled protein that had absorption at 280 nm, 493 nm and 640 nm were collected for smFRET data collection.\n(§2) The laser confocal fluorescence microscope MicroTime 200 (PicoQuant, Berlin, Germany) was used for single-molecule imaging, and a pulsed interleaved excitation (PIE) scheme was used with two SPCM-AQRH detectors (Excelitas, Waltham, MA, USA) for recording fluorescence time traces at two different wavelengths. Two picosecond-pulsed diode laser heads (LDH-P-C-485 and LDH-P-C-640; PicoQuant, Berlin, Germany) were driven by a PDL 828 Sepia II driver (PicoQuant) at a repetition rate of 40 MHz, which allowed interleaved excitations for Alexa488 and Cy5. Each laser was coupled to the inverted microscope IX 73 (Olympus, Beijing, China) through a single-mode fiber, and was reflected by a dichroic mirror through a water-immersion objective (UPLSAPO 60×, N.A. 1.20). The protein sample was loaded onto a hybridization chamber (Thermo Fisher) glued to a glass coverslip (Thermo Fisher, Shanghai, China). The laser confocal point was set to about 50 μm above the coverslip. The excitation power at the back of the objective was about 100 μW for the 485 nm laser and about 35 μW for the 640 nm laser, as estimated with a power meter (PM20-FC; Thorlabs, Shanghai, China). Focused to a 100 μm pinhole, the fluorescence emission from the excited protein molecule was collected with the same objective. The donor and acceptor emissions were separated with a dichroic mirror (T635lpxr; Chroma, Xiamen, China). The donor emission was filtered with a 520/35 BP band pass, and the acceptor emission was filtered with a 690/70 BP band pass, before being focused onto the two SPCM-AQRH detectors.\n(§3) The fluorescence outputs were recorded with a TimeHarp 260 PCI board (PicoQuant, Berlin, Germany) built into a PC workstation, and the data were stored in the time-tagged time-resolved module (PicoQuant, Berlin, Germany). The photon counts including fDex/Dem, fDex/Aem and fAex/Aem were obtained by binning the photons in 1 ms bins using SymPhoTime64 software (PicoQuant, Berlin, Germany). […] With all three fluorescence time traces recorded, the signals from the donor-only or acceptor-only protein molecules were filtered out, so as to ensure that an fDex/Aem photon only arises from a doubly labeled protein. […]"}, "[2]": {"biological_target": "T2, phAimR dimer (D174C-labelled) (Bacillus phage phi3T, UniProt P0DOE3, C136S/C223S/C267S/C6S/C74S/C99S/D174C)", "T2 construct": "6xHis (N, cleaved yes); made in house; host or cells: Escherichia coli BL21 (DE3)", "T2 sequence (P0DOE3 whole entry C6S/C74S/C99S/C136S/D174C/C223S/C267S)": "as the sequence (P0DOE3 whole entry C6S/C74S/C99S/N103C/C136S/C223S/C267S) above, with C103N, D174C counted along it", "assay": "smFRET titration of phAimR dimer labelled at D174C (Alexa488/Cy5)", "assay_type": "binding", "details": "titration of SAIRGA or target DNA, GMPRGA at 500 nM", "method": "as §1, §2, §3"}, "[3]": {"test_system": "phAimR–target DNA interaction", "assay": "Electrophoretic mobility shift assay, phAimR binding to target DNA", "assay_type": "biochemical, Bacillus phage phi3T", "details": "5 nM FAM-labelled 41 bp DNA; 0, 0.037, 0.11, 0.33 and 1 M (so in the source) phAimR, peptide 10-fold molar excess; 25 mM Tris-HCl pH 8.0, 150 mM NaCl, room temperature, 10 min; three biological replicates", "method": "DNA probes were annealed using boiling water with FAM-labeled primers to generate the 41 bp DNA fragment (70262-70302, 5′ […] 3′) from phi3T bacteriophage genome. The labeled probes (5 nM) were incubated with 0, 0.037, 0.11, 0.33 and 1 M phAimR proteins or peptide-bound phAimR complex (peptide is 10-fold molar excess of phAimR) in a buffer containing 25 mM Tris-HCl (pH 8.0), 5 mM MgCl2, 5 mM DTT, 0.1 mg·mL^−1 BSA, 10% glycerol and 150 mM NaCl at room temperature for 10 min. The reactions were resolved on 6% native acrylamide gels (37.5:1 acrylamide:bis-acrylamide) in 0.5× TBE buffer at 100 V for 75 min. Images of the gels were obtained using FLA5100 (Typhoon, Shanghai, China).\nFigure S 6. EMSA characterize the interaction between phAimR and target DNA. The phi 3T-derived SAIRGA peptide abolishes the DNA binding ability of phAimR, whereas the SP beta-derived GMPRGA peptide has no effects. Each EMSA experiments was conducted for three biological replicates.\nF ig u re S 7. Comparison of cross-correlation function GAD(τ) between apo phAimR ( b l a c k line), in complex with 500 nM SAIRGA peptide (blue line) and 8000 nM target DNA (red line). FCS data was collected forthe N103C dyes -labeled phAimR dimer. […]"}, "spAimR": {"biological_target": "spAimR", "details": "cited from earlier work"}, "phAimR wild type": {"biological_target": "T3, phAimR wild type (Bacillus phage phi3T, UniProt P0DOE3 1-378)", "T3 sequence": "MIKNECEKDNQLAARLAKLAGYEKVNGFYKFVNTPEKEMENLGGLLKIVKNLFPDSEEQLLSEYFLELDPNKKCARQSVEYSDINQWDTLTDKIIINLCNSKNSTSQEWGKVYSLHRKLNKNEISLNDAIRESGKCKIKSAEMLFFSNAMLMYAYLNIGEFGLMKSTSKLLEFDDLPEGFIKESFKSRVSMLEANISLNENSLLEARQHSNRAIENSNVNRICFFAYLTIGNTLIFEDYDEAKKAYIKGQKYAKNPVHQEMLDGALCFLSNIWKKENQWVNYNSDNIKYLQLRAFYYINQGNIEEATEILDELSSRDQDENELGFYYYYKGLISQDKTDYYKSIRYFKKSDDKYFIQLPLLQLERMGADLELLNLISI", "assay": "EMSA; no peptide; 5 mM MgCl2; EMSA: 25 mM Tris-HCl pH 8.0, 150 mM NaCl, 5 mM MgCl2, 5 mM DTT, 0.1 mg/mL BSA, 10% glycerol, room temperature 10 min, 5 nM probe, protein 0-1 (printed 'M', probably uM); smFRET titration buffer not in the material", "details": "protein: recombinant; tags: N-terminal 6xHis removed with drICE protease; chain copies: 2; label: FAM; blunt"}}, "data": [{"molecule": "GMPRGA [SPbeta arbitrium peptide (GMPRGA), negative control, reference compound]", "values": [{"measurement": "effect on smFRET profile / conformational state enriched", "setting": "[1]", "value": "no perturbation on the smFRET profile of phAimR"}, {"measurement": "effect on smFRET profile / conformational state enriched", "setting": "[2]", "value": "no perturbation on the smFRET profile of phAimR"}, {"measurement": "effect on DNA binding ability of phAimR (EMSA)", "setting": "[3]", "value": "no effects"}, {"measurement": "Kd", "setting": "spAimR", "value": 4.6, "unit": "nM"}]}, {"molecule": "phi3T target DNA 41 bp, FAM probe (dsDNA) DNA 1: GAAATGTCCAGAAATTCAAAAATCAAAAAATAAGAACATGG DNA 2: CCATGTTCTTATTTTTTGATTTTTGAATTTCTGGACATTTC", "values": [{"measurement": "binding result", "setting": "phAimR wild type", "value": "binds"}]}]}
